# Measurements from patent US20250283056A1, “MODIFIED O-[…] USEFUL FOR PRODUCTION OF O-METHYLATED PHENOLIC NATURAL PRODUCTS” (The University of Hong Kong, priority 2024, published 2025).
# Where two headings read alike, the source gives them in different places.
# Legend:
# [1] = target: T1, SbCOMT (Sorghum bicolor, UniProt Q84X55); experiment: In vitro OMT enzyme assay, recombinant SbCOMT; format: biochemical
# Experimental: (§1) To screen for OMT activities, purified stilbene products of enzyme assays were separated by a Synergi C18 column (Synergi 4μ Fusion RP 80 Å, 50×2 mm, Phenomenex, USA) under a flow rate of 0.5 ml min-1 over a 6 min linear gradient of 10%-90% B (described below). […] Meanwhile, purified phenylpropanoid products of enzyme assays were separated on the same column connected to a HP1100 series HPLC system (Agilent Technologies, USA) linked to an AP3200-QTRAP mass spectrometer (AB Sciex, China) operating under the multiple-reaction-monitoring (MRM) mode. To quantify these products, assay products were separated on a Kinetex C18 column (Kinetex 2.6 μm C18 100 Å, 100×2.1 mm, Phenomenex, USA) connected to a HP1100 series HPLC system (Agilent Technologies, USA) linked to an AP3200-QTRAP mass spectrometer (AB Sciex, China) operating under the multiple-reaction-monitoring (MRM) mode. A linear gradient of 10%-90% B under a flow rate of 0.3 ml min-1 over 6 min was used to further enhance sensitivity. Total metabolites from all plant tissues were separated by the same Kinetex C18 column connected to the X500R QTOF-HRMS system. A linear gradient under a flow rate of 0.3 ml min-1 over a 20 min linear gradient of 10%-90% B was used.
# (§2) Reaction products were extracted twice with ethyl acetate. […] All reactions were done in triplicates.
# [2] = test system: SsCOMT; experiment: In vitro OMT enzyme assay, recombinant SsCOMT; format: biochemical, Saccharum spontaneum; conditions: two-hour incubation with 100 μM substrate
# Experimental: as §1, §2
# [3] = target: T2, SbSOMT (Sorghum bicolor, UniProt A0A1B6PFV1); experiment: In vitro OMT enzyme assay, recombinant SbSOMT; format: biochemical
# Experimental: as §1, §2
# [4] = target: T1, SbCOMT; experiment: Isothermal titration calorimetry (ITC), SbCOMT wild type; format: binding
# Experimental: (§3) Isothermal titration calorimetry (ITC) assays were conducted with MicroCal iTC200 (Malvern Panalytical, UK). […] Both cell sample and titrant were equilibrated to ITC buffer consisting of 100 mM HEPES pH 7.9 with 2.5% (v/v) PEG 400. For ITC assays involving pterostilbene, PEG 400 concentration was increased to 5% (v/v). Each run incorporated an initial delay of 60 s prior to the first injection (0.5 μl) and spaced 150 s between the subsequent 19 injections (2.0 μl) at 25° C. During the runs, the cell was continuously stirred at 750 rpm by flat paddle. Results were analysed based on the 2nd to 20th injections using the Origin (MicroCal Software, USA) and PEAQ-ITC software (Malvern Panalytical, UK).
# [5] = target: T1, SbCOMT; experiment: Enzyme kinetics of SbCOMT; format: biochemical; conditions: pinostilbene as substrate
# Source text: as §2
# [6] = target: SsCOMT; experiment: Isothermal titration calorimetry (ITC), SsCOMT wild type; format: binding, Saccharum spontaneum; conditions: 25° C., SsCOMT WT, mean ± standard error from curve fitting
# Experimental: as §3
# [7] = target: SbSOMT E310A (Sorghum bicolor, UniProt A0A1B6PFV1, E310A); experiment: biochemical; format: binding; conditions: for Stoichiometry, N: ITC
# Experimental: (§4) Desired mutations of SbSOMT were introduced into its construct using specific primers (Table 11). Expression constructs were transformed into Rosetta™ (DE3) competent Escherichia coli cells (Novagen, Germany). Protein expression was induced with 0.1 mM Isopropyl-β-thiogalactopyranoside (IPTG) overnight at 16° C. E. coli cells were harvested, resuspended in lysis buffer (20 mM Tris buffer pH 7.9, 300 mM NaCl, 2.5 mM β-mercaptoethanol), and lysed by sonication. Crude proteins were loaded onto a HisTrap HP column (Cytiva, USA) connected to a AKTA pure chromatography system (Cytiva, USA). Column was washed with 15 column volumes of lysis buffer with 50 mM imidazole. Proteins were eluted over a gradient of 50-500 mM imidazole. Eluate fractions with the target OMT were pooled, digested with TEV protease, and simultaneously dialyzed against a low salt buffer (20 mM Tris pH 7.9, 50 mM NaCl, 2.5 mM β-mercaptoethanol) overnight at 4° C. The dialyzed sample was filtered and flowed through HisTrap to remove His-tagged components. The flowthrough was then loaded to HiTrap Q FF columns (Cytiva, USA) over a gradient of 50-1000 mM NaCl. Polishing was achieved via size-exclusion chromatography using the storage buffer (100 mM HEPES pH 7.9, 100 mM NaCl) as mobile phase. SsSTS was purified under the same conditions except that the pH was adjusted to 7.0 for all buffers. Proteins were concentrated by ultrafiltration and flash frozen for storage at −80° C.
# as §3
# [8] = target: T2, SbSOMT; experiment: Enzyme kinetics of SbSOMT; format: biochemical; conditions: pinostilbene as substrate
# Source text: as §2
# [9] = target: T2, SbSOMT; experiment: Isothermal titration calorimetry (ITC), SbSOMT wild type; format: binding
# Experimental: as §3
# [10] = test system: SbSOMT I144N/F337N; experiment: Catalytic assay, SbSOMT I144N/F337N mutant protein; format: biochemical, Sorghum bicolor; conditions: resveratrol, one-hour incubation
# Source text: (§5) Data are expressed as yields relative to that of wild-type SbSOMT protein (WT). […] Data are expressed as yields relative to that of wild-type SbSOMT protein (WT). Values refer to means±SD (n=3). Asterisks indicate significant differences between mutant protein and WT (Student's t-test, ***: p<0.001). Tricin was used as an internal standard for quantitation. […] Dots represent individual data points.
# (§6) Desired mutations of SbSOMT were introduced into its construct using specific primers (Table 11). Expression constructs were transformed into Rosetta™ (DE3) competent Escherichia coli cells (Novagen, Germany). Protein expression was induced with 0.1 mM Isopropyl-β-thiogalactopyranoside (IPTG) overnight at 16° C. E. coli cells were harvested, resuspended in lysis buffer (20 mM Tris buffer pH 7.9, 300 mM NaCl, 2.5 mM β-mercaptoethanol), and lysed by sonication. […]
# (§7) For initial screening of OMT activities, purified OMT enzymes (10 μg) were incubated in 100 mM HEPES buffer (pH 7.9), 200 μM S-adenosyl-L-methionine (SAM) and 100 μM of phenylpropanoid or stilbene substrates (final volume 200 μl) at 30° C. for 2 h. Enzyme kinetics were determined by incubating 1 μg protein with 100 mM HEPES buffer (pH 7.9), 300 μM SAM, and stilbene concentrations ranging from 5 to 200 μM at 30° C. for 5 min. […]
# [11] = test system: SbSOMT F337N; experiment: Catalytic assay, SbSOMT F337N mutant protein; format: biochemical, Sorghum bicolor; conditions: SbSOMT F337N vs WT, resveratrol, one-hour incubation
# Source text: as §5, §6, §7
# [12] = test system: SbSOMT H282A; experiment: Catalytic assay, SbSOMT H282A mutant protein; format: biochemical, Sorghum bicolor; conditions: one-hour incubation
# Source text: as §5, §6, §7
# [13] = target: SbSOMT I144N/F337N; experiment: ITC, SbSOMT I144N/F337N mutant protein; format: binding, Sorghum bicolor
# Experimental: as §4, with “Polishing was achieved via size-exclusion chromatography using the storage buffer (100 mM HEPES pH 7.9, 100 mM NaCl) as mobile phase. SsSTS was purified under the same conditions except that the pH was adjusted to 7.0 for all buffers. Proteins were concentrated by ultrafiltration and flash frozen for storage at −80° C.” left out
# (§8) Isothermal titration calorimetry (ITC) assays were conducted with MicroCal iTC200 (Malvern Panalytical, UK). […] Results were analysed based on the 2nd to 20th injections using the Origin (MicroCal Software, USA) and PEAQ-ITC software (Malvern Panalytical, UK).
# [14] = target: SbSOMT F337N; experiment: ITC, SbSOMT F337N mutant protein; format: binding, Sorghum bicolor
# Experimental: as §4, with “Polishing was achieved via size-exclusion chromatography using the storage buffer (100 mM HEPES pH 7.9, 100 mM NaCl) as mobile phase. SsSTS was purified under the same conditions except that the pH was adjusted to 7.0 for all buffers. Proteins were concentrated by ultrafiltration and flash frozen for storage at −80° C.” left out
# as §8
# [15] = target: T3, SbSOMT D283A (Sorghum bicolor, UniProt A0A1B6PFV1, D283A); conditions: SbSOMT D283A incubated with resveratrol, one hour
# Source text: as §5, §6, §7
# [16] = target: T4, SbSOMT E342A (Sorghum bicolor, UniProt A0A1B6PFV1, E342A); conditions: SbSOMT E342A incubated with resveratrol, one hour
# Source text: as §5, §6, §7
# [17] = target: T3, SbSOMT D283A; experiment: biochemical
# Experimental: as §4, §3
# [18] = target: SbSOMT I144N (Sorghum bicolor, UniProt A0A1B6PFV1, I144N); experiment: biochemical
# Experimental: as §4, §3
# [19] = target: SbSOMT H282N/D283A (Sorghum bicolor, UniProt A0A1B6PFV1, D283A/H282N); experiment: biochemical
# Experimental: as §4, §3
# [20] = target: T4, SbSOMT E342A; experiment: biochemical
# Experimental: as §4, §3
# [21] = test system: SbOMT4; experiment: In vitro OMT enzyme assay, recombinant SbOMT4; format: biochemical, Sorghum bicolor
# Experimental: as §1, §2
# [22] = two-hour incubation with 100 μM substrate
# [23] = 300 μM SAM, 30° C., 5 min, mean ± SD (n = 3)
# [24] = ITC, 25° C., SbCOMT WT, mean ± standard error from curve fitting, read-out: Kd
# [25] = two-hour incubation with 100 μM resveratrol
smiles,measurement,setting,value
COc1cc(/C=C/C(=O)O)cc(O)c1O [5-hydroxyferulic acid],O-methylation of hydroxycinnamic acids to ferulic acid / sinapic acid,[1]; [22],efficiently converted
same,formation of O-methylated product,[2],generated
same,O-methylation of hydroxycinnamic acids,[3]; [22],failed to methylate
"Oc1cc(O)cc(/C=C/c2ccc(O)c(O)c2)c1 [Piceatannol, piceatannol]",conversion of piceatannol into isorhapontigenin (3′-O-methylation in the B-ring),[1]; two-hour reaction with 100 μM piceatannol,ca. 60%
same,Kd,[4],1.26 µM
"COc1cc(O)cc(/C=C/c2ccc(O)cc2)c1 [Pinostilbene, pinostilbene]",Specific activity,[5],3.46 ± 0.27 nmol/min/mg
same,kcat,[5],0.00233 ± 0.00017 s⁻¹
same,Km,[5]; [23],3.14 ± 1.4 µM
same,Kd,[6],5.57 ± 0.77 µM
same,"Stoichiometry, N",[7]; SbSOMT mutant E310A,0.59 ± 0.01
same,Kd,"[7]; SbSOMT mutant E310A, ± SE, read-out: Kd",3.91 ± 0.33 µM
same,Specific activity,[8],290.04 ± 5.64 nmol/min/mg
same,kcat,[8],0.1717 ± 0.00333 s⁻¹
same,Km,[8]; [23],4.62 ± 0.46 µM
same,Kd,"[9]; ITC, 25° C., SbSOMT WT, mean ± standard error from curve fitting, read-out: Kd",2.86 µM
same,Kd,[4]; [24],1.79 µM
"COc1cc(/C=C/c2ccc(O)cc2)cc(OC)c1 [Pterostilbene, pterostilbene]",Kd,[7],6.04 ± 2.08 µM
same,Kd,[4]; [24],3.99 µM
"Oc1ccc(C=Cc2cc(O)cc(O)c2)cc1 [Resveratrol, resveratrol]",SOMT activities,[10],complete abolishment of SOMT activities
same,Kd,[6],2.78 ± 0.33 µM
same,less pterostilbene produced compared to WT,[11],97.7%
same,more pinostilbene accumulated compared to WT,[11],50.8%
same,catalytic activity with resveratrol,[12],catalytically defective
same,Kd,[13],No binding
same,Kd,[13]; listed as resveratrol,undetectable binding affinities
same,Kd,[7],18.5 ± 2.58 µM
same,"Stoichiometry, N",[7]; SbSOMT mutant E310A,0.36 ± 0.04
same,Kd,[14],No binding
same,Kd,[14]; listed as resveratrol,undetectable binding affinities
same,pterostilbene formation,[15],failed to generate pterostilbene
same,pterostilbene formation,[16],failed to generate pterostilbene
same,"resveratrol 3,5-bis-O-methylation activities",[1]; [25],"poor resveratrol 3,5-bis-O-methylation activities"
same,Kd,[9],4.69 µM
same,Kd,[17],1.31 µM
same,"Stoichiometry, N","[17]; SbSOMT mutant D283A, ITC",0.58 ± 0.01
same,Kd,[18],152 ± 31.1 µM
same,Kd,"[18]; SbSOMT mutant I144N, N fixed at 0.6 to estimate the Kd, ± SE",significantly weakened binding
same,Kd,[19],32.9 µM
same,"Stoichiometry, N","[19]; SbSOMT mutant H282N/D283A, ITC",0.61 ± 0.17
same,Kd,[20],11.1 ± 0.75 µM
same,"Stoichiometry, N","[20]; SbSOMT mutant E342A, ITC",0.75 ± 0.01
same,SOMT activities with resveratrol as substrate,[21],minimal SOMT activities
same,formation of O-methylated product,[2],only small amounts of pinostilbene were generated
same,Kd,[4],1.55 µM
same,conversion of resveratrol into pterostilbene,[3]; [25],about 60%
